5 molecules from article PMC11071649, “Synthesis and Selective Anticancer Activity Evaluation of 2-phenylacrylonitrile Derivatives as Tubulin Inhibitors” (Current Medicinal Chemistry, 2024) can be followed below.

Holding throughout (type): cell-based, human
Experiment [1] has as its system SGC-7901 early differentiation gastric cancer cell. The experiment is described as follows: MTT anti-proliferative assay, SGC-7901. The note with it: MTT, 48 h. An outline of the steps: (§1)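 Cell lines plated in 96-well plates and exposed to compounds; anti-proliferative activity determined by MTT read-out as inhibition of net cell growth.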
For experiment [2], the system named is MCF-10A normal breast cell. Kind of experiment: MTT assay, MCF-10A normal cells. The note with it: 48 h. An outline of the steps: as §1
The subject of the next experiment is A549 lung cancer cell. Kind of experiment: MTT anti-proliferative assay, A549. The conditions noted are these: MTT, 48 h. An outline of the steps:
as §1

A further experiment relates to HepG2 hepatoma cell. Kind of experiment: MTT anti-proliferative assay, HepG2. The note with it: MTT, 48 h, read-out: IC50 HepG-2. An outline of the steps:
as §1

Experiment [3] relates to BEL-7402 liver cancer cell. The experiment is described as follows: MTT anti-proliferative assay, BEL-7402. The conditions noted are these: for IC50: MTT, 48 h. An outline of the steps: as §1
Experiment [4] relates to HeLa cervical cancer cell. The experiment is described as follows: MTT anti-proliferative assay, HeLa. The note with it: MTT, 48 h. An outline of the steps: as §1
In experiment [5] the test system is Raji B lymphoblastoid cell. The experiment is described as follows: MTT anti-proliferative assay, Raji. The conditions noted are these: for IC50: MTT, 48 h, read-out: IC50 Raji. An outline of the steps:
as §1

Another experiment deals with MCF-7 breast cancer cell. Kind of experiment: MTT anti-proliferative assay, MCF-7. The note with it: MTT, 48 h. An outline of the steps:
as §1

Experiment [6] concerns MGC-803 late stage differentiation gastric cancer cell. Kind of experiment: MTT anti-proliferative assay, MGC-803. The conditions noted are these: for IC50: MTT, 48 h. An outline of the steps: as §1
For the next experiment, the system named is L-02 normal liver cell. Kind of experiment: MTT assay, L-02 normal cells. The note with it: 48 h. An outline of the steps: as §1
Experiment [7] deals with HCT116 colectal cancer cell. Kind of experiment: MTT anti-proliferative assay, HCT116. The note with it: for IC50: MTT, 48 h. An outline of the steps: as §1
For another experiment, the system named is AGS gastric cancer cell. The experiment is described as follows: MTT anti-proliferative assay, AGS. The conditions noted are these: for IC50: MTT, 48 h. An outline of the steps: as §1
Experiment [8] deals with diffuse large B-cell lymphoma SU-DHL-10 cell. The experiment is described as follows: MTT anti-proliferative assay, SU-DHL-10. The note with it: for IC50: MTT, 48 h, read-out: IC50 SU-DHL-10. An outline of the steps:
as §1

Where two headings read alike, the source gives them in different places.

On to `N#C/C(=C\c1ccccn1)c1ccc(C(F)(F)F)cc1` [Compound 1f3c], for which the IC50 (in experiment [1]; in [2]; in the experiment on A549 lung cancer cell; with HepG2 hepatoma cell; in [3]; in experiment [4]) was over 100 µM throughout. Besides, the IC50 was over 100 µM in experiment [5]; over 100 µM with MCF-7 breast cancer cell; over 100 µM in experiment [6]; over 100 µM with L-02 normal liver cell; 87.6 ± 9.1 µM in experiment [7] (read-out: IC50 HCT-116); over 100 µM in the experiment on AGS gastric cancer cell. Further, the IC50 in [8] is over 100 µM. In experiment [7], the “SI (selectivity index), IC50 (L-02)/IC50 (HCT-116)” value is recorded as over 1.1.
As to `N#C/C(=C\c1cccc2ccccc12)c1ccc(C(F)(F)F)cc1` [Compound 1f3d], the IC50 (in experiment [1]; in experiment [2]; in the experiment with A549 lung cancer cell; in the experiment with HepG2 hepatoma cell; in experiment [3]; in experiment [4]) was over 100 µM in each case. Besides, the IC50 (in experiment [5]; with MCF-7 breast cancer cell; in experiment [6]; in the experiment on L-02 normal liver cell; in [7] (read-out: IC50 HCT-116); in the experiment on AGS gastric cancer cell) was over 100 µM throughout. The IC50 in experiment [8] is over 100 µM.
Turning to `CCN(CC)c1ccc(/C=C(\C#N)c2cc(OC)c(OC)c(OC)c2)cc1` [Compound 1g2b], the IC50 was over 100 µM in experiment [1]; 0.05 ± 0.001 µM in [2]; over 100 µM in the experiment on A549 lung cancer cell; over 100 µM in the experiment with HepG2 hepatoma cell; 0.03 ± 0.01 µM in experiment [3]; over 100 µM in [4]. For the same molecule, the IC50 was 0.37 ± 0.06 µM in [5]; 0.45 ± 0.06 µM in the experiment with MCF-7 breast cancer cell; 0.12 ± 0.03 µM in [6]; over 100 µM in the experiment with L-02 normal liver cell; 1 ± 0.1 µM in experiment [7] (read-out: IC50 HCT-116); 7.5 ± 0.4 µM in the experiment with AGS gastric cancer cell. Besides, the IC50 in experiment [8] is 2.4 ± 0.1 µM. Besides, the “SI (selectivity index), IC50 (L-02)/IC50 (BEL-7402)” value in [3] was over 3333. Also, in experiment [5], the “SI (selectivity index), IC50 (L-02)/IC50 (Raji)” value was over 270. Further, in experiment [6], the “SI (selectivity index), IC50 (L-02)/IC50 (MGC-803)” value is listed as over 819. In addition, the “SI (selectivity index), IC50 (L-02)/IC50 (HCT-116)” value in experiment [7] is listed as over 96.1. Also, the “SI (selectivity index), IC50 (L-02)/IC50 (AGS)” value in the experiment with AGS gastric cancer cell was over 13.1. Further, the “SI (selectivity index), IC50 (L-02)/IC50 (SU-DHL-10)” value in experiment [8] was over 34.0.
Regarding `N#C/C(=C\c1cn(-c2ccccc2)nn1)c1ccc(OC(F)(F)F)cc1` [Compound 7a], the IC50 in experiment [1] (Homo sapiens, SGC-7901) is over 100 µM; in experiment [2] (Homo sapiens, MCF-10A), over 100 µM; in the experiment with A549 lung cancer cell (Homo sapiens, A549) it was over 100 µM; in the experiment on HepG2 hepatoma cell (Homo sapiens, HepG2), over 100 µM; in [3] (Homo sapiens, Bel-7402), over 100 µM; in experiment [4] (Homo sapiens, HeLa), over 100 µM. The IC50 in [5] (Homo sapiens, Raji) is over 100 µM; in the experiment with MCF-7 breast cancer cell (Homo sapiens, MCF7) it was over 100 µM; in experiment [6] (Homo sapiens, MGC-803), over 100 µM; in the experiment with L-02 normal liver cell (Homo sapiens), over 100 µM; in [7] (Homo sapiens, HCT-116), over 100 µM; in the experiment with AGS gastric cancer cell (Homo sapiens), over 100 µM. In addition, the IC50 in experiment [8] (Homo sapiens, SU-DHL10) is over 100 µM.
Regarding `COc1cccc(-n2cc(/C=C(\C#N)c3ccc(OC(F)(F)F)cc3)nn2)c1` [Compound 7b], the IC50 in [1] (Homo sapiens, SGC-7901) was over 100 µM; in experiment [2] (Homo sapiens, MCF-10A), over 100 µM; in the experiment on A549 lung cancer cell (Homo sapiens, A549), over 100 µM; in the experiment with HepG2 hepatoma cell (Homo sapiens, HepG2), over 100 µM; in [3] (Homo sapiens, Bel-7402), over 100 µM; in [4] (Homo sapiens, HeLa), over 100 µM. Also, the IC50 was over 100 µM in experiment [5] (Homo sapiens, Raji); over 100 µM with MCF-7 breast cancer cell (Homo sapiens, MCF7); over 100 µM in experiment [6] (Homo sapiens, MGC-803); over 100 µM in the experiment with L-02 normal liver cell (Homo sapiens); over 100 µM in [7] (Homo sapiens, HCT-116); over 100 µM with AGS gastric cancer cell (Homo sapiens). Besides, the IC50 in [8] (Homo sapiens, SU-DHL10) is over 100 µM.
